Assay results from US11464823B2, “Curcumin carbon quantum dots and use thereof” (priority 2018, dated 2022).

Assays:
EV71 = experiment: Cytopathic effect (CPE) inhibition assay, RD cells infected with EV71 (pre-, post-, co-treatment); assay type: cell-based, human rhabdomyosarcoma (RD) cells
Procedure: RD cells were seeded at 7.5×10^3 cells/well in 96-well plates and incubated for 24 hours at 37° C. To analyze how Cur-CQDs affect the infectivity of EV71, Cur-CQDs pre-treatment, post-treatment, co-treatment assay was taken as follows. For pre-treatment, Cur-CQDs were pre-incubated with RD cells at 37° C. for 24 hours and then cultured with EV71 for 48 hours at 37° C. For post-treatment, EV71 were pre-incubated with RD cells at 37° C. for 24 hours, after that, cell monolayers were washed with PBS to remove non-adherent virus and further incubated with DMEM (containing 2% FBS and Cur-CQDs) at 37° C. for 48 hours. For co-treatment, EV71 were pre-incubated with series of CQDcurs at 37° C. for 1 hour, then cultured with RD cells for 72 hours at 37° C. Negative (cells only) and positive (cells infected with EV71 without Cur-CQDs) controls were set as well.

[1] = Cytotoxicity / cell viability (Presto blue); assay type: cell-based; conditions: human, RD cells
Procedure: The in vitro cellular viability of the as-prepared Cur-CQDs was evaluated using the Presto blue. First, approximately 7.5×10^3 RD cells/well were seeded in 96-cell plates and were fed with DMEM containing 10% fetal bovine serum (FBS). After 24 hours of incubation in a humidified incubator with 5% CO2 at 37° C., the medium was removed from each well, and RD cells were washed with phosphate buffered saline (PBS, pH 7.4). Then, sample solutions (Cur-CQDs with different concentrations) or the control solutions were added in and incubated with cells for 24 hours to 72 hours. Each concentration was tested with 4 sets of parallel samples. After that, the culture medium was replaced with Presto blue and incubated for another 1 hour at 37° C. Finally, fluorescence was measured at an excitation wavelength at 540 nm and an emission wavelength at 590 nm with a BioTek Microplate Reader. The viability of cells was expressed as the percentage of control untreated cells (100%).

**Q.** Which EC50 (EV71; Enterovirus A, EV71 in RD cell, read-out: Antiviral activity EC50 (concentration at which inhibition rate of CPE reaches halfway between baseline and maximum)) does the source give for `COc1cc(/C=C/C(=O)CC(=O)/C=C/c2ccc(O)c(OC)c2)ccc1O` [Curcumin] here?
**A.** Its EC50 is > 200 µg/mL.

**Q.** And the selectivity ratio (EV71; human)?
**A.** The selectivity ratio was 0.1.

**Q.** And the CC50 [1]?
**A.** Its CC50 is > 13 µg/mL.
